Measurements from article PMC6669903 (Neuron, 2019).

Assays:
[1] = system: Tiam1/CaMKII complex; assay type: cell-based; settings: bath application (AP5, KN-93) or cotransfection (CaMKIIN)
[2] = system: dendritic spines of CA1 pyramidal neurons in hippocampal organotypic slice cultures; assay: structural LTP; assay type: cell-based, rat
[3] = system: Tiam1 phosphorylation by CaMKII in neurons in dissociated culture; assay: Tiam1 phosphorylation after chemical LTP, Phos-tag SDS-PAGE; assay type: cell-based, rat; settings: KN-93 10 µM; glycine 200 µM for 10 min
[4] = system: Rac1; assay: Rac1 activity in spines by FRET-FLIM sensor during sLTP; assay type: cell-based, rat; settings: change in lifetime of GFP-Rac1 in stimulated spines; uncaging 0.5 Hz

Compound	effect on Tiam1/CaMKII interaction after sLTP induction [1]	effect on established sLTP, drug added 5 min after induction ([2]; applied 5 min after sLTP induction)	effect on established sLTP, drug added 15 min after induction ([2]; applied 15 min after sLTP induction)	effect on sLTP, drug added before induction ([2]; applied 30 min before sLTP induction, spines visualized by untagged GFP)	effect on persistent Tiam1 phosphorylation after chemical LTP [3]	effect on Rac1 activation during sLTP [4]
N[C@H](CCCP(=O)(O)O)C(=O)O [AP5, D-(−)-2-Amino-5-phosphonopentanoic acid]	blocked	–	–	–	–	–
O=c1cc(CN2CCOCC2)occ1OCCCCCSc1ccnc2cc(C(F)(F)F)ccc12 [EHT1864]	–	effectively blocked sLTP	effectively blocked sLTP	effectively inhibited sLTP	–	–
COc1ccc(S(=O)(=O)N(CCO)c2ccccc2CN(C)C/C=C/c2ccc(Cl)cc2)cc1 [KN-93]	blocked	–	–	–	blocked	effectively blocked the activation of Rac1
